Tests used:
Assay type in all cases: cell-based
[1] = tested on: caspase 3/7 activity in HepG2 cells; experiment: Apo-ONE Homogeneous Caspase-3/7 Assay, CDCA-induced apoptosis; details: for caspase-3/7 attenuation: HepG2 cells, CDCA 200 μM, 12 hours, 10 μM EPA, 10 μM DHA, or 5 μM EPA+5 μM DHA
Description: Cultured HepG2 cells were treated with 50, 100, or 200 μM CDCA in the presence and absence of 10 μM EPA, 10 μM DHA, or 5 μM EPA+5 μM DHA. Controls included cells incubated with vehicle alone (EtOH). Apoptosis was evaluated after 4, 8, 12, 18, and 24 hours using the Apo-ONE®
(§1) Homogeneous Caspase-3/7 Assay (Promega Corporation, Madison, Wis., United States of America). Specific apoptotic mediators (Fas and TRAIL-R2) were evaluated at 0.5, 1, 1.5, 2, and 4 hrs using quantitative real-time RT-PCR.
(§2) Experimental Design. HepG2 cells were plated and grown to 95% confluence for all experiments, except for fluorescent cell staining, where cells where grown to 50% confluence. Cells were treated with CDCA 50-200 mM (Sigma-Aldrich), ±EPA 1-10 μM (Nu-check Prep, Elysian, Minn., United States of America), and ±DHA 10 μM (Nu-check Prep). HepG2 cells were treated for 4, 8, 12, 18, 24 hours for cell viability and caspase assays. Cells were treated for 0.5, 1, 1.5, 2, 4 hour for mRNA analysis by quantitative real time RT-PCR.
Caspase assay. Apoptosis was evaluated using the Apo-ONE® Homogeneous Caspase-3/7 Assay purchased from Promega Corporation (Madison, Wis., United States of America) and performed according to the manufacturer's instructions. HepG2 cells were treated for 4, 8, 12, 18, 24 hours followed by the addition of caspase-3/7 reagent and incubation for 4 hours in the dark on a rocking shaker at low speed. Results were read at fluorescein 485 nm/535 nm with a Victor 2, Perkin-Elmer Wallace 1420 multilabel counter (Shelton, Conn., United States of America).

[2] = Cell viability by trypan blue staining; details: human, HepG2 cells; 2 hour treatment with CDCA alone; trypan blue; read-out: viable cells
Description: as §2, with “HepG2 cells were treated for 4, 8, 12, 18, 24 hours for cell viability and caspase assays.” left out
(§3) Cell Viability. Cell viability was evaluated after treating cells, as described above, followed by trypsinization in order to disperse cells into a 0.2% trypan blue (Sigma-Aldrich) cell suspension mixture. After staining, 10 μL of cell suspension was placed on a hemocytometer with a glass cover slip and evaluated using an inverted microscope (25× magnification). All cells were counted and viability was accessed.

[3] = tested on: pro-inflammatory cytokine (IL-6) mRNA in HepG2 cells; experiment: IL-6 mRNA by quantitative RT-PCR; details: CDCA 200 uM, 2 hour incubation
Description: Quantitative RT-PCR. Total RNA was isolated from confluent cultures according to manufacturer's instructions with TRIzol™ reagent (Invitrogen, Carlsbad, Calif., United States of America). First-strand cDNAs were synthesized from 2 μg of total RNA in a 21 μl reaction volume using the SuperScript™ First-Strand Synthesis System for RT-PCR (Invitrogen) in accordance with the manufacturer's instructions. Quantitative PCR was performed in triplicate using the Model 7500 Sequence Detection System (Applied Biosystems, Foster City, Calif., United States of America). Independent PCRs were performed using the same cDNA for both the gene of interest and the 18S rRNA, using the SYBR Green PCR Master Mix (Applied Biosystems). Specific primers were designed for the genes of interest (Fas, TRAIL-R2, and IL-6). […] The change in fluorescence of SYBR Green in every cycle was monitored by the system software, and the threshold cycle (CT) above the background for each reaction was calculated. […] The mRNA expression level relative to the calibrator was expressed as 2^−ΔΔCT. […]
IL6 mRNA levels were measured by quantitative RT-PCR after a 2 hour incubation in a HepG2 cells. […] Statistical significance was determined using an ANOVA with Tukey's LSD. […] Statistical significance was determined using an ANOVA with Tukey's LSD.

HepG2 cells [4] = experiment: Nuclear staining with ethidium bromide/acridine orange; details: cells treated with the substance alone, 2 hours
Description: Nuclear staining. Cells were grown on glass inserts and once 50% confluence was achieved, cells were treated with CDCA±EPA for 2 hours. Immediately following treatment, cells were washed with phosphate buffered saline (PBS), fixed with methanol (−10° C.) for 15 minutes, then washed with PBS. Fixed cells were then stained for 5 minutes with ethidium bromide (100 μg/ml) and acridine orange (100 μg/ml) (EB/AO) dye mixture (Sigma-Aldrich) in PBS. Following staining, cells underwent 5 washes prior to being mounted on glass slides using VECTASHIELD® mounting medium and analyzed using an Olympus America Inc., IX50-FLA inverted reflected light fluorescence microscope (Lake Success, N.Y., United States of America).

Fas mRNA in HepG2 cells = experiment: Fas mRNA by quantitative real-time RT-PCR; details: HepG2 cells incubated with CDCA 200 μM alone; 0.5 hours; relative to vehicle control
Description: as §1
as §2, with “Cells were treated with CDCA 50-200 mM (Sigma-Aldrich), ±EPA 1-10 μM (Nu-check Prep, Elysian, Minn., United States of America), and ±DHA 10 μM (Nu-check Prep).” left out
Quantitative RT-PCR. Total RNA was isolated from confluent cultures according to manufacturer's instructions with TRIzol™ reagent (Invitrogen, Carlsbad, Calif., United States of America). First-strand cDNAs were synthesized from 2 μg of total RNA in a 21 μl reaction volume using the SuperScript™ First-Strand Synthesis System for RT-PCR (Invitrogen) in accordance with the manufacturer's instructions. Quantitative PCR was performed in triplicate using the Model 7500 Sequence Detection System (Applied Biosystems, Foster City, Calif., United States of America). […] The change in fluorescence of SYBR Green in every cycle was monitored by the system software, and the threshold cycle (CT) above the background for each reaction was calculated. […] The mRNA expression level relative to the calibrator was expressed as 2^−ΔΔCT.

HepG2 cells [5] = experiment: Cell viability by trypan blue staining
Description: as §2, with “HepG2 cells were treated for 4, 8, 12, 18, 24 hours for cell viability and caspase assays.” left out
as §3

| Compound | apoptotic effect of CDCA (caspase 3/7 activity) ([1]; CDCA 50-200 μM, across all time points (4-24 hours)) | time of peak caspase activity ([1]; HepG2 cells treated with 200 μM CDCA) | viability at 2 h [2] | pro-inflammatory cytokine (IL-6) mRNA expression [3] | EB/AO nuclear staining appearance (HepG2 cells [4]) | increase in Fas mRNA levels (Fas mRNA in HepG2 cells) | caspase-3/7 attenuation [1] | viable cells (HepG2 cells [5]; 2 hour treatment with CDCA and EPA, trypan blue) | total cell count relative to cells exposed to medium alone (HepG2 cells [5]; treatment with CDCA and EPA) |
| --- | --- | --- | --- | --- | --- | --- | --- | --- | --- |
| C[C@H](CCC(=O)O)[C@H]1CC[C@H]2[C@@H]3[C@H](O)C[C@@H]4C[C@H](O)CC[C@]4(C)[C@H]3CC[C@]12C [CDCA, chenodeoxycholic acid] | dose-dependent | 12 h | 88% | significantly increased | cellular integrity is lost | 4.7 fold | – | – | – |
| CC/C=C\C/C=C\C/C=C\C/C=C\C/C=C\CCCC(=O)O [EPA, eicosapentaenoic acid] | – | – | – | – | – | – | 22% | 100% | 75% |
| CC/C=C\C/C=C\C/C=C\C/C=C\C/C=C\C/C=C\CCC(=O)O [DHA, docosahexaenoic acid] | – | – | – | – | – | – | 9% | – | – |

From patent US20120277316A1, “METHODS AND COMPOSITIONS FOR TREATING AND PREVENTING PARENTERAL NUTRITION ASSOCIATED LIVER DISEASE” (University of Tennesse Research Foundation a university, priority 2010, published 2012)
